ChEMBL document CHEMBL1151679, “A new cytotoxic sterol methoxymethyl ether from a deep water marine sponge Scleritoderma sp. cf. paccardi” (J Nat Prod, 1996)
Values after ≈ are worked out from the molar mass of the structure shown.

Test system: P388
Test: Cytotoxicity against mouse P388 cells
Format: functional, cell-based

COCO[C@H]1CC[C@@]2(C)[C@@H](CC=C3[C@@H]2CC[C@]2(C)[C@@H]([C@H](C)CC[C@@H](C)C(C)C)CC[C@@H]32)C1
IC50: 2.3 µg/mL (≈ 5.17 µM)
